Data set [1] deals with T1, SFRP-1 (Homo sapiens, UniProt Q8N474).
T1 sequence (Q8N474 32-314): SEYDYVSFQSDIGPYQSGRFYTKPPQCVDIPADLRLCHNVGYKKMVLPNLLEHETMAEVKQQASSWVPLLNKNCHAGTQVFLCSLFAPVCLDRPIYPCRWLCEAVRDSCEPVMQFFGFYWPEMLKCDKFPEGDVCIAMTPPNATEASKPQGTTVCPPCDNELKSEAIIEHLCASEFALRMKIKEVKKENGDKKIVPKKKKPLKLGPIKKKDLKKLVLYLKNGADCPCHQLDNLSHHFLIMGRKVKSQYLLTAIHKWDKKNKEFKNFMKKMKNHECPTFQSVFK
The data set is described as follows: Fluorescence polarization binding assay (competitive displacement of a probe compound from SFRP-1).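 Also: test compound competes with a fluorescent probe held by SFRP-1, seen as a drop in probe anisotropy after incubation in darkness, with anisotropy as function of rising compound dose.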 To be noted: fluorescence anisotropy, 45 nM SFRP-1, 20 nM probe. Background: In fluorescence polarisation assays a small probe gives low polarisation when free and higher when bound to something large.

For data set [2], the target named is T1, SFRP-1. Description: Cell-based assay for in vitro measurement of SFRP-1/SARP2 antagonist activity (U2OS cells co-transfected with 16x TCF-tk-Luciferase reporter, Wnt and hSFRP-1).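 As to all read-outs here: U2OS cells co-transfected with a TCF-tk luciferase reporter, a Wnt vector, hSFRP-1 or empty vector and CMV-βgal, luciferase luminescence read in cell lysates alongside βgal activity.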 The settings on record: for fold induction at 10 µM / fold induction at 15 µM: U2OS; for fold induction at 10 µM: read-out: Fold Induction with SFRP-1, U2OS cells, single dose 10 μM, luciferase reporter, fold induction over SFRP-1 control. For orientation: In a reporter assay the amount or activity of a reporter protein is the signal.

The mark [3] stands for this setting: read-out: Fold Induction with SFRP-1, Conc 15 μM, single dose, luciferase reporter, fold induction over SFRP-1 control, cells with SFRP-1.
Where [4] appears, read: read-out: Fold Induction without SFRP-1, Conc 15 μM, single dose, luciferase reporter, cells without SFRP-1 (specificity control).

“And” between values parts separate entries of the source, which are not always exact repeats. Identical values can stand only once. Like-named read-outs stand apart in the source and are kept apart here.

Usually IC50 stands for the concentration at which inhibition is half-maximal. As usually defined, the melting point is the temperature, or range, at which the solid turns liquid. For `CC(C)c1ccc(S(=O)(=O)c2ccccc2)cc1S(=O)(=O)NC1C[C@H]2CC[C@@H](C1)N2C.Cl` (relative stereo) [Example 860, 2-Isopropyl-N-[(1R*,5S*)-8-methyl-8-azabicyclo[3.2.1]oct-3-yl]-5-(phenylsulfonyl)benzenesulfonamide monohydrochloride], the melting point is 90 °C. The compound also yielded an IC50 in data set [1] of 800 nM. Moreover, the fold induction at 10 µM in data set [2] was 4.1.
What is called EC50 is the concentration giving half of the maximal effect. For the compound `CN1[C@@H]2CC[C@H]1CC(NS(=O)(=O)c1cc(S(=O)(=O)c3ccccc3)ccc1C(F)(F)F)C2` (relative stereo) [Example 1035, N-[(1R*, 5S*)-8-Methyl-8-azabicyclo[3.2.1]oct-3-yl]-5-(phenylsulphonyl)-2-(trifluoromethyl)benzenesulfonamide], the melting point is 154 to 157 °C. This compound also yielded an IC50 in data set [1] of 300 nM. This compound gave a 50% effective concentration (EC50) in data set [2] of 1350 nM.
`Cc1ccc(S(=O)(=O)c2cc3c(c(S(=O)(=O)NCCc4ccccc4F)c2)CCCC3)cc1` [Example 441, N-[2-(2-Fluorophenyl)ethyl]-3-[(4-methylphenyl)sulfonyl]-5,6,7,8-tetrahydronaphthalene-1-sulfonamide] had a melting point of 55 to 60 °C. For the same compound, the concentration for half-maximal inhibition (IC50) in data set [1] stood at 6000 nM. Further, the fold induction at 15 µM in data set [2] (read-out: Fold Induction with SFRP-1, Conc 15 μM, with SFRP-1, fold induction over SFRP-1 control, single dose) turned out to be 1.8. Moreover, the fold induction at 15 µM in data set [2] (read-out: Fold Induction without SFRP-1, Conc 15 μM, without SFRP-1, single dose) came out at 1.1.
Compound `CCCc1ccc(S(=O)(=O)c2ccccc2)cc1S(=O)(=O)NC1CCOCC1` [Example 551, 5-(Phenylsulfonyl)-2-propyl-N-(tetrahydro-2H-pyran-4-yl)benzenesulfonamide] came in with a melting point of 131 to 133 °C. The IC50 in data set [1] was 1000 nM. The fold induction at 15 µM in data set [2] (setting [3]) worked out at 3.1. In addition, in data set [2] (setting [4]), the fold induction at 15 µM came to 1.1.
Compound `CCCc1ccc(S(=O)(=O)c2ccccc2)cc1S(=O)(=O)NCCc1ccccn1` [Example 555, 5-(Phenylsulfonyl)-2-propyl-N-(2-pyridin-2-ylethyl)benzenesulfonamide] registered a melting point of 100 to 102 °C. Also, the half-inhibitory concentration (IC50) in data set [1] is 700 nM and 1100 nM. For the same compound, the fold induction at 15 µM in data set [2] (setting [3]) was found to be 3.1. In data set [2] (setting [4]), the fold induction at 15 µM is 1.2.
Take `CCCc1ccc(S(=O)(=O)c2ccccc2)cc1S(=O)(=O)NCCCn1ccnc1` [Example 556, N-[3-(1H-Imidazol-1-yl)propyl]-5-(phenylsulfonyl)-2-propylbenzenesulfonamide]: the melting point was 143 to 146 °C. In data set [1], the IC50 was 300 nM. Further, in data set [2] (setting [3]), the fold induction at 15 µM is 4. For the same compound, in data set [2] (setting [4]), the fold induction at 15 µM worked out at 1.2.
In turn, `CCCc1ccc(S(=O)(=O)c2ccccc2)cc1S(=O)(=O)NC1CCN(C(=O)OC(C)(C)C)CC1` [Example 558, tert-Butyl 4-({[5-(phenylsulfonyl)-2-propylphenyl]sulfonyl}amino)piperidine-1-carboxylate] had a melting point of 128 to 130 °C. The IC50 in data set [1] amounted to 700 nM. Moreover, the fold induction at 15 µM in data set [2] (setting [3]) came out at 1.8. Besides, in data set [2] (setting [4]), the fold induction at 15 µM is 1.1.
Take `CCCc1ccc(S(=O)(=O)c2ccc(F)cc2)cc1S(=O)(=O)NC1CCOCC1` [Example 560, 5-[(4-Fluorophenyl)sulfonyl]-2-propyl-N-(tetrahydro-2H-pyran-4-yl)benzenesulfonamide]: the melting point fell in the range of 131 to 133 °C. Moreover, in data set [1], the IC50 was 1700 nM and 2700 nM. The fold induction at 15 µM in data set [2] (setting [3]) came out at 1.6. Moreover, in data set [2] (setting [4]), the fold induction at 15 µM was 0.9.
On to `CCCc1ccc(S(=O)(=O)c2ccc(F)cc2)cc1S(=O)(=O)NCCc1ccccn1` [Example 564, 5-[(4-Fluorophenyl)sulfonyl]-2-propyl-N-(2-pyridin-2-ylethyl)benzenesulfonamide], for which the melting point fell in the range of 113 to 115 °C. Moreover, the IC50 in data set [1] was 1400 nM and 1600 nM. Further, in data set [2] (setting [3]), the fold induction at 15 µM is 3.3. For the same compound, the fold induction at 15 µM in data set [2] (setting [4]) turned out to be 1.3.
Regarding `CCCc1ccc(S(=O)(=O)c2ccc(F)cc2)cc1S(=O)(=O)NC1CCN(C(=O)OC(C)(C)C)CC1` [Example 567, tert-Butyl 4-[({5-[(4-fluorophenyl)sulfonyl]-2-propylphenyl}sulfonyl)amino]piperidine-1-carboxylate], the melting point lay within 151 to 153 °C. This compound returned a half-maximal inhibitory concentration (IC50) in data set [1] of 1600 nM. Further, the fold induction at 15 µM in data set [2] (setting [3]) turned out to be 2.2. Further, in data set [2] (setting [4]), the fold induction at 15 µM amounted to 1.3.
For `O=S(=O)(NCCc1ccccc1)c1cc(S(=O)(=O)c2ccccc2)ccc1C(F)(F)F` [Example 570, N-(2-Phenylethyl)-5-(phenylsulfonyl)-2-(trifluoromethyl)-benzenesulfonamide], in that order: 151 to 153 °C, 160 nM, 2.4 and 1.2.
In the case of `O=S(=O)(NCCc1ccccn1)c1cc(S(=O)(=O)c2ccccc2)ccc1C(F)(F)F` [Example 571, 5-(Phenylsulfonyl)-N-(2-pyridin-2-ylethyl)-2-(trifluoromethyl)benzenesulfonamide], the melting point was 149 to 151 °C. Besides, the IC50 in data set [1] was 130 nM and 300 nM. The fold induction at 15 µM in data set [2] (setting [3]) was found to be 3.1. Also, the fold induction at 15 µM in data set [2] (setting [4]) was found to be 1.2.
`O=S(=O)(NC1CCOCC1)c1cc(S(=O)(=O)c2ccccc2)ccc1C(F)(F)F` [Example 608, 5-(phenylsulfonyl)-N-(tetrahydro-2H-pyran-4-yl)-2-(trifluoromethyl)benzenesulfonamide]: the melting point was 155 to 158 °C. Moreover, in data set [1], the IC50 was 300 nM and 500 nM. Besides, in data set [2] (setting [3]), the fold induction at 15 µM turned out to be 3.8. Moreover, the fold induction at 15 µM in data set [2] (setting [4]) worked out at 1.1.
On to `CC(C)c1cc(C(C)C)c(S(=O)(=O)c2ccccc2)cc1S(=O)(=O)NCCc1ccccc1` [Example 609, 2,4-Diisopropyl-N-(2-phenylethyl)-5-(phenylsulfonyl)benzenesulfonamide], for which the melting point is 156 to 158 °C. The compound further had an IC50 in data set [1] of 2100 nM. Besides, in data set [2] (setting [3]), the fold induction at 15 µM turned out to be 1.4. The fold induction at 15 µM in data set [2] (setting [4]) worked out at 1.1.
`CC(C)c1cc(C(C)C)c(S(=O)(=O)c2ccccc2)cc1S(=O)(=O)NC1CCOCC1` [Example 610, 2,4-Diisopropyl-5-(phenylsulfonyl)-N-(tetrahydro-2H-pyran-4-yl)benzenesulfonamide] registered a melting point of 159 to 160 °C. The IC50 in data set [1] came to 900 nM. Further, the fold induction at 15 µM in data set [2] (setting [3]) came out at 2.5. In data set [2] (setting [4]), the fold induction at 15 µM was 1.1.
For the compound `CC(C)c1cc(C(C)C)c(S(=O)(=O)c2ccc(F)cc2)cc1S(=O)(=O)NC1Cc2ccccc2C1` [Example 634, N-(2,3-Dihydro-1H-inden-2-yl)-5-[(4-fluorophenyl)sulfonyl]-2,4-diisopropylbenzenesulfonamide], the melting point is 202 to 204 °C. For the same compound, the fold induction at 15 µM in data set [2] (setting [3]) worked out at 3. The fold induction at 15 µM in data set [2] (setting [4]) was 1.
On to `COc1ccc(S(=O)(=O)c2ccccc2)cc1S(=O)(=O)NCCc1cccnc1` [Example 678, 2-Methoxy-5-(phenylsulfonyl)-N-(2-pyridin-3-ylethyl)benzenesulfonamide], for which the melting point is 181 to 183 °C. The fold induction at 10 µM in data set [2] is 1.6.
In turn, `COc1ccc(S(=O)(=O)c2ccccc2)cc1S(=O)(=O)NC1CCOCC1` [Example 689, 2-Methoxy-5-(phenylsulfonyl)-N-(tetrahydro-2H-pyran-4-yl)benzenesulfonamide] yielded a melting point of 176 to 178 °C. The fold induction at 10 µM in data set [2] was 1.2.

Source of the values: patent publication US20060276464A1, “Diarylsulfone sulfonamides and use thereof” (Wyeth, priority 2005, published 2006).
